One assay concerns the target CaMKIV (Homo sapiens, UniProt Q16566). Conditions: AIP 1 μM; cited from earlier work.
A further assay relates to PKC. The conditions noted are these: AIP 1 μM; cited from earlier work.
The test system of assay [1] is Ca2+/calmodulin-dependent protein kinase II (CaMKII). Conditions: cited from earlier work.
The next assay relates to PKA. The conditions noted are these: AIP 1 μM; cited from earlier work.
Assay [2] concerns human saphenous vein (HSV). The assay can be described thus: Muscle bath: sodium nitroprusside-induced relaxation of human saphenous vein. It is filed as cell-based. Conditions: 50 or 100 μM pretreatment; data not shown. The protocol: De-identified, discarded segments of human saphenous vein (HSV) were collected from consented patients undergoing coronary artery or peripheral vascular bypass surgeries. HSV segments were stored in a saline solution until the end of the surgical procedure, at which time they were placed in cold transplant harvest buffer (100 mM potassium lactobionate, 25 mM KH2PO4, 5 mM MgSO4, 30 mM Raffinose, 5 mM Adenosine, 3 mM Glutathione, 1 mM Allopurinol, 50 g/L Hydroxyethyl starch, pH 7.4). The vessels were used within 24 hours of harvest. Using sterile technique, HSV segments were transferred to a 60-mm Petri dish under a sterile hood. The edges (0.5 mm) of each segment were removed with a blade and excess adventitial tissue and fat removed with minimal manipulation. HSV segments were cut into consecutive rings of approximately 1.0 mm in width to be utilized for organ culture or muscle bath experiments. Two rings from each segment were immediately fixed in 10% formalin at 37° C. for 30 min to obtain pre-culture intimal thickening measurements.
In preparation for testing vein segment functional viability, HSV rings were weighed and their lengths recorded. To focus on smooth muscle responses, the endothelium was mechanically denuded by rolling the luminal surface of each ring at the tip of a fine vascular forceps before suspension in a muscle bath containing a bicarbonate buffer (120 mM NaCl, 4.7 mM KCl, 1.0 mM MgSO4, 1.0 mM NaH2PO4, 10 mM glucose, 1.5 mM CaCl2, and 25 mM […], pH 7.4) equilibrated with 95% O2 and 5% CO2 at 37° C. The rings were stretched and the length progressively adjusted until maximal tension was obtained. […] Rings were maintained at a resting tension of 1 g, which produces maximal responses to contractile agonists as previously determined, and equilibrated for 2 hours in buffer. […]
HSV rings were first contracted with 110 mM KCl (with equimolar replacement of NaCl in bicarbonate buffer) and the generated force was measured. […] Rings were relaxed with a cumulative log dose of sodium nitroprusside (SNP), a nitric oxide donor, and the force generated was recorded. […] Rings were then incubated with either buffer alone or buffer plus 100 μM of MMI-0100 ([…] (SEQ ID NO: 1)) for 2 hours, followed by treatment with the same doses of PE and SNP, and the forces generated again recorded. Measured force was normalized for ring weight and length and percent relaxation was calculated; force generated with 10^−6 M of PE was set as 0% relaxation.
The enhancing effect of MMI-0100 ([…]; SEQ ID NO: 1) on smooth muscle relaxation was examined by pre-treating harvested human saphenous vein (HSV) with MMI-0100 ([…]; SEQ ID NO: 1) before SNP treatment. […] Percentage of relaxation at 0, 0.01, 0.1, and 1.0 μM of SNP was measured. […]

A further assay has as its system MK2. The conditions noted are these: known small molecule inhibitor of MK2; ATP competitive; cited from earlier work.
In assay [3] the test system is immortalized human pleural mesothelial cells (ATCC CRL-9444). The assay can be described thus: IL-6 ELISA in TNF-α-stimulated mesothelial cells. It is filed as cell-based. As for the experimental part: Expression of inflammatory cytokines was induced by applying 1 or 10 ng/ml of TNF-α to cultured mesothelial cells. Briefly, immortalized human pleural mesothelial cells (ATCC CRL-9444) were grown in Medium199 with Earle's BSS, 0.75 mM L-glutamine (Mediatech Inc., Manassas, Va.), 1.25 g/l sodium bicarbonate (Sigma), 3.3 nM epidermal growth factor (EGF) (MBL International, Woburn, Mass.), 40 nM hydrocortisone (Sigma), 870 nM insulin (MBL International), 20 mM HEPES (Sigma), trace elements mixture B (Mediatech Inc., Waltham, Mass.), 10% fetal bovine serum (FBS) (Hyclone), and 1% penicillin/streptomycin (Mediatech Inc., Waltham, Mass.). […] Human mesothelial cells were treated with two different concentrations (1 and 10 ng/mL) of TNF-α for 2, 6, 12, and 24 hours (data not shown). […] Without TNF-α stimulation, mesothelial cells made negligible amounts of IL-6. […] In subsequent experiments designed to determine whether the MMI-0100 peptide ([…]; SEQ ID NO: 1) could reduce TNF-α induced IL-6 expression, both 1 and 10 ng/mL of TNF-α were selected as stimuli. 10 ng/mL of TNF-α is regarded as more physiologically relevant for mesothelial cells.
Prior to cytokine and/or inhibitor treatment, cells were allowed to acclimate in serum-free media consisting of only Medium199 with Earle's BSS, 0.75 mM L-glutamine, 1.25 g/l sodium bicarbonate, 20 mM HEPES, trace elements mixture B (Mediatech Inc., Waltham, Mass.), and 1% penicillin/streptomycin (Mediatech Inc., Waltham, Mass.) for 24 hours. […] Average concentration of IL-6 (pg/ml per 10^5 cells) at each time was determined by cytokine-specific ELISA.
For orientation: ELISA stands for enzyme-linked immunosorbent assay.

pIC50: −log10 of the molar value.

Chain of CaMKIV (Q16566 whole entry, species assumed): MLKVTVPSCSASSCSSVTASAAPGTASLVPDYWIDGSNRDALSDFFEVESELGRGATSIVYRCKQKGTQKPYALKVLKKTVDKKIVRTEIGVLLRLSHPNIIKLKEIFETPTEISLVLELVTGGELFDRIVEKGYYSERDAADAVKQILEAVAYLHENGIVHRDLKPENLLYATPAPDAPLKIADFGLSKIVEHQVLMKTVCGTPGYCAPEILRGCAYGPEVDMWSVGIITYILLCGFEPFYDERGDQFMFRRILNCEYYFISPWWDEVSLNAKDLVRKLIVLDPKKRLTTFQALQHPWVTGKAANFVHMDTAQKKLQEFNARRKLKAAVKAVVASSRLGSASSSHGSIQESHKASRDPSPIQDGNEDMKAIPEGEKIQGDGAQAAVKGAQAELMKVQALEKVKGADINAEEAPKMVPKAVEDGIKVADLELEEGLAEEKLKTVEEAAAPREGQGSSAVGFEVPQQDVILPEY

Consider “autocamtide-2 related inhibitory peptide [AIP]”, for which the CaMKIV activity result at CaMKIV was “not affected”. Further, the PKC activity result in the assay with PKC was “not affected”. Also, in assay [1] (AIP 1 μM), the CaMKII activity entry was “inhibited completely”. In assay [1], the pIC50 is 7.00. Besides, in the assay on PKA, the PKA activity entry was “not affected”.
On to “YARAAARQARA (mammal) [PTD peptide, control peptide (transduction domain, PTD peptide), reference compound]”, for which the “relaxation response vs untreated control” value in assay [2] is on record as “no significant difference in relaxation response”.
Consider `CC(=O)c1c(O)c(C)c(O)c(Cc2c(O)c3c(c(C(=O)/C=C/c4ccccc4)c2O)OC(C)(C)C=C3)c1O` [Rottlerin, reference compound], for which, in the assay with MK2, the negative logarithm of the IC50 (pIC50) was 5.30. Besides, the IL-6 expression result is “significantly increased IL-6 expression above that induced by TNF-α alone” in assay [3] (TNF-α 1 ng/mL, 6 hrs); “ineffective in reducing IL-6 expression” in assay [3] (TNF-α 1 ng/mL, MMI-0100 1000 or 3000 μM, 6, 12, 24 hours); “reduced IL-6 expression only at a higher dose (1 μM) and only at twenty-four hours after treatment” in assay [3] (TNF-α 10 ng/mL, 6, 12, 24 hours).

As a reminder, the pIC50 is the negative decadic logarithm of the IC50, by convention in mol/L.

Source of the values: patent US20110288036A1, “Methods for Treating or Preventing Vascular Graft Failure” (priority 2010, published 2011).
